Source: US7396848B1, “Neurotrophin production/secretion promoting agent” (Takeda Pharmaceutical Company Limited, priority 2000, dated 2008)

Key:
[1] = test system: diabetic neuropathy model; test: Sensory nerve conduction velocity in STZ diabetic neuropathy model rats; type: in vivo, SD rats; conditions: 10 mg/kg body weight/day orally for 4 months
Procedure: A diabetic neuropathy model was made by injecting streptozotocin (STZ) into the tail vein of male 6-week-old SD rats in a dose of 70 mg/kg body weight. After 4 moths of housing, 10 mg/kg body weight/day of compound (5) which was suspended in 0.5% (w/v) methylcellulose was orally administered for 4 months. After administration, the rats were anesthetized with pentobarbital and the body temperature of the rats were kept 37° C. using a hotplate heated and an electric lamp. Then, conduction velocities of motor nerves and sensory nerves were determined using an induction potential test device (Neuropack 2, produced by Nihon Kohden) in the following manner. Proximal or distal positions of the sural nerve of the rats were stimulated at, in principle, 0.8 mA and the potential was recorded at the plantar skin. The sensory nerve conduction velocity was calculated from the distance and latencies of the two different stimulating sites.

[2] = test system: diabetic neuropathy model; test: Hyperalgesia test (pressure-stimulant algesiometer, pain threshold of hind-limb) in STZ diabetic neuropathy model rats; type: in vivo, SD rats; conditions: 10 mg/kg body weight/day orally for 1 month
Procedure: A diabetic neuropathy model was made by injecting streptozotocin (STZ) into the tail vein of male 6-week-old SD rats in a dose of 70 mg/kg body weight. After 4 months of housing, 10 mg/kg body weight/day of compound (5) which was suspended in 0.5% (w/v) methylcellulose was orally administered for 1 month. After administration, a hvderalgesia test was conducted using a pressure-stimulant algesiometer (produced by Ugo Basil) to determine the pain threshold of hind-limb.

NGF [3] = test: NGF content in peripheral and brain tissues of STZ diabetic neuropathy model rats; type: in vivo, SD rats
Procedure: (§1) The culture fluid obtained in each run of Reference Example 1A was recovered and assayed for the neurotrophin content therein. NGF was assayed by the enzyme immunoassay method described by Murase et al. in Biochemistry International, vol. 22, p. 807 (1990). Thus, an anti-NGF antibody (100 μg/ml) (antibody obtained by using mouse NGF as the antigen and immunizing New Zealand albino rabbits therewith) was distributed in 10-μl portions in the wells of 96-well round bottom plates and antibody adsorption was allowed to proceed by 2 hours standing at room temperature. After removing the antibody, each well was washed three times with a washing solution. A 10-μl portion of the above recovered culture fluid or standard NGF solution was placed in each well and the plates were allowed to stand at room temperature for 2.5 hours. After three times washings of each well, 20 μl of biotinylated anti-NGF antibody (35 ng/ml) was added thereto, followed by overnight standing at 4° C. […] After washing, 30 μl of 4-methylumbelliferyl-β-D-galactoside (produced by Sigma) (10 μg/μl) was added to the substrate, the reaction was allowed to proceed at room temperature for 4 hours and then terminated by addition of 130 μl of 0.1 M glycine-sodium hydroxide buffer (pH 10.3), and the fluorescent intensity of the 4-methylumbelliferone produced was determined (Ex: 360 nm; Em: 450 nm). The amount of NGF was calculated based on a standard curve and expressed in terms of relative multiplicity in relation to the amount of NGF (control) produced and secreted by cells treated in the same manner without adding the test compound. […]
(§2) A diabetic neuropathy model was made by injecting streptozotocin (STZ) into the tail vein of male 6-week-old SD rats in a dose of 70 mg/kg body weight. […] After 30 minutes of centrifugation at 15,000 rpm, the supernatant was used as the sample and the NGF and BDNF contents were determined in the same manner as in Experimental Example 1.

BDNF [4] = test: BDNF content in pons of STZ diabetic neuropathy model rats; type: in vivo, SD rats; conditions: 10 mg/kg body weight/day orally for 1 month
Procedure: (§3) A diabetic neuropathy model was made by injecting streptozotocin (STZ) into the tail vein of male 6-week-old SD rats in a dose of 70 mg/kg body weight. After 4 weeks, 0.1 to 3 mg/kg body weight of compound (5) was orally administered for 4 weeks, and each tissue was collected. The collected tissue was supplemented with 25 to 40 times of disruption buffer (0.1 M Tris-hydrochloride buffer, pH 7.6, containing 1 M sodium chloride, 2% BSA, 2 mM EDTA, 80 trypsin units/L of aprotinin and 0.02% sodium azide) in terms of the wet tissue weight, which was subjected to sonication. After 30 minutes of centrifugation at 15,000 rpm, the supernatant was used as the sample and the NGF and BDNF contents were determined in the same manner as in Experimental Example 1.
(§4) A diabetic neuropathy model was made by injecting streptozotocin (STZ) into the tail vein of male 6-week-old SD rats in a dose of 70 mg/kg body weight. […]
(§5) While, the pons were collected from brain stem to determine the contents of neurotrophic factors. The BDNF contents were determined in the similar manner as in Experimental Example 2. The NT-3 contents were determined in the similar manner as in Experimental Example 2 except that an anti-NT-3 antibody (Brain Res. 1994, 12, pp. 143-146; Clin Chim Acta 1994, 227, pp. 23-36) was used.

BDNF [5] = test: BDNF content in peripheral and brain tissues of STZ diabetic neuropathy model rats; type: in vivo, SD rats
Procedure: as §1, §2

NT-3 = NT-3 content in pons of STZ diabetic neuropathy model rats; type: in vivo, SD rats; conditions: 10 mg/kg body weight/day orally for 1 month
Procedure: as §3, §4, §5

[6] = test system: diabetic neuropathy model; test: Motor nerve conduction velocity in STZ diabetic neuropathy model rats; type: in vivo, SD rats; conditions: 10 mg/kg body weight/day orally for 4 months
Procedure: A diabetic neuropathy model was made by injecting streptozotocin (STZ) into the tail vein of male 6-week-old SD rats in a dose of 70 mg/kg body weight. After 4 moths of housing, 10 mg/kg body weight/day of compound (5) which was suspended in 0.5% (w/v) methylcellulose was orally administered for 4 months. After administration, the rats were anesthetized with pentobarbital and the body temperature of the rats were kept 37° C. using a hotplate heated and an electric lamp. Then, conduction velocities of motor nerves and sensory nerves were determined using an induction potential test device (Neuropack 2, produced by Nihon Kohden) in the following manner. Needle electrodes were placed at the thigh or the ankle of the rats. Then, the sciatic nerve or the tibial nerve was stimulated at, in principle, 1.6 mA and the action potential was recorded from the plantar muscle. The motor nerve conduction velocity was calculated from the distance and latencies of the two different stimulating sites.

BDNF [7] = test: BDNF production/secretion promoting activity in cultured Schwann cells (enzyme immunoassay of culture fluid); type: cell-based, SD rats; conditions: 24 hours, concentrations of 10^−4 M to 10^−8 M, result in words
NGF [8] = test: NGF production/secretion promoting activity in cultured Schwann cells (enzyme immunoassay of culture fluid); type: cell-based, SD rats; conditions: 24 hours, concentrations of 10^−4 M to 10^−8 M, result in words
Procedure: Schwann cells were prepared by subjecting the dorsal spinal root ganglion collected from 10 newborn SD rats to enzyme treatment using 0.25% trypsin containing 0.01% deoxyribonuclease (DNase, produced by Sigma), followed by cloning from the cell group obtained. […]
The culture fluid obtained in each run of Reference Example 1A was recovered and assayed for the neurotrophin content therein. […] After washing, 30 μl of 4-methylumbelliferyl-β-D-galactoside (produced by Sigma) (10 μg/μl) was added to the substrate, the reaction was allowed to proceed at room temperature for 4 hours and then terminated by addition of 130 μl of 0.1 M glycine-sodium hydroxide buffer (pH 10.3), and the fluorescent intensity of the 4-methylumbelliferone produced was determined (Ex: 360 nm; Em: 450 nm). The amount of NGF was calculated based on a standard curve and expressed in terms of relative multiplicity in relation to the amount of NGF (control) produced and secreted by cells treated in the same manner without adding the test compound. […]

[9] = Mean ± SD (n = 5 to 8), **: p < 0.01 vs STZ group
[10] = 0.1 to 3 mg/kg body weight orally for 4 weeks, hippocampus, Mean ± SD (n = 8 to 9), *: p < 0.05 vs STZ group
[11] = 0.1 to 3 mg/kg body weight orally for 4 weeks, sciatic nerve, Mean ± SD (n = 8 to 9), *: p < 0.05 vs STZ group
[12] = pons, Mean ± SD (n = 10), **: p < 0.01 vs STZ group

Compound: Cc1ccccc1OCCCc1oc(-n2ccnc2C)nc1-c1ccc(Cl)cc1 [Compound (5), 4-(4-chlorophenyl)-2-(2-methyl-1-imidazolyl)-5-[3-(2-methylphenoxy)propyl]oxazole]
- SNCV (m/s) [1, 9]: 41.1 ± 7.9** m/s
- sensory nerve conduction velocity, effect versus STZ group ([1]; result in words): recovered
- Pain threshold (g) ([2]; hind-limb, Mean ± SD (n = 10), **: p < 0.01 vs STZ group): 109 ± 19** g
- hyperalgesia, effect versus STZ group ([2]; result in words): ameliorated
- NGF (pg/g tissue) Hippocampus (NGF [3]; [10]): 738 ± 105* pg/g tissue
- NGF (pg/g tissue) Sciatic nerve (NGF [3]; [11]): 495 ± 143* pg/g tissue
- NGF production/secretion promoting activity at the sciatic nerve and the hippocampus (NGF [3]; oral, 4 weeks, result in words): excellent
- BDNF (pg/g tissue) (BDNF [4]; [12]): 4151 ± 1161** pg/g tissue
- amount of BDNF in pons, effect versus STZ group (BDNF [4]; result in words): increased
- BDNF (ng/g tissue) Hippocampus (BDNF [5]; [10]): 3.5 ± 0.3* ng/g tissue
- BDNF (ng/g tissue) Sciatic nerve (BDNF [5]; [11]): 5.0 ± 0.6* ng/g tissue
- BDNF production/secretion promoting activity at the sciatic nerve and the hippocampus (BDNF [5]; oral, 4 weeks, result in words): excellent
- NT-3 (pg/g tissue) (NT-3; [12]): 352 ± 118** pg/g tissue
- amount of NT-3 in pons, effect versus STZ group (NT-3; result in words): increased
- MNCV (m/s) [6, 9]: 54.9 ± 7.6** m/s
- motor nerve conduction velocity, effect versus STZ group ([6]; result in words): recovered
- BDNF production/secretion promoting activity (BDNF [7]): excellent
- NGF production/secretion promoting activity (NGF [8]): excellent
